In US12297453B2, “Generation of norepinephrine neurons from human stem cells” (Wisconsin Alumni Research Foundation, priority 2020, dated 2025):

Tests used:
Format in all cases: cell-based, human
hESCs (H9 line) = experiment: Patterning of hESCs to hindbrain R1 neuroepithelial cells with a CHIR99021 dose series (RT-qPCR, flow cytometry, immunocytochemistry)
Method: (§1) On day 5, change the medium without SB431542. […] Cells were feed daily.
gRNA was designed according to Benchling. Donor plasmid was generated by NEBuilder® HiFi DNA Assembly Master Mix (NEB, E2621S). Briefly, hPSCs were digested by TrypLE Express. Gene Pulser Xcell (Bio-Rad) was used for CRISPR/Cas9 delivery. Two-million cells were electroporated with 15 μg of sgRNA plasmid (pLenti-CRISPR) with 30 μg donor plasmid. Cells were plated at ˜150,000 cells/well of 6-well plate. Starting 24 hours after electroporation, 0.5 μg/ml puromycin were added to the culture medium. After 3 days of puromycin selection, hPSCs were switched to their normal culture medium and fed every other day until approximately 1-2 weeks after electroporation when distinct colonies were established. • Cell transplantation: Small aggregates of NE neural progenitors (day 10-day 12) were collected and suspended in artificial cerebral spinal fluid (aCSF) containing Rock inhibitor (0.5 μM), at a concentration of 100,000 cells/μl. 1 μl of cells were slowly injected into the left cortex (AP=+0.0 mm, ML=+1.8 mm, DV=−1.7 mm, from skull) of adult SCID mice (8-12 weeks) that were anesthetized with 1%-2% isoflurane mixed in oxygen. • Immunocytochemistry and flow cytometry: Immunocytochemistry was performed as described previously. See Huang et al., 2016, Sci Rep, 6:32600, doi:10.1038/srep32600. In brief, cells on coverslips were fixed in 4% neutral-buffered paraformaldehyde (PFA) for 10 minutes (min) at room temperature. Following rinsing with PBS, these cells were incubated in 0.2% Triton X-100 (in phosphate buffered saline (PBS)) for 10 min followed by 10% donkey serum (in PBS) at room temperature for 1 hour (h). The cells were then incubated with primary antibodies diluted in 5% donkey serum in 0.1% Triton X100 (in PBS) at 4° C. overnight, followed by fluorescently conjugated secondary antibodies at room temperature for 30 min. The nuclei were stained with Hoechst. Images were collected with a Nikon A1 laser-scanning confocal microscope. Flow cytometry was performed using Transcription Factor Buffer Set which is designed for transcription factor staining following manufacturer's instruction. Briefly, single cells were prepared using TrypLE Express Enzyme and fixed in the fixation buffer provided by the kit at 2-8° C. for 45 min. After 3 washings with the permeable buffer, primary antibodies were added to cells for 45 min at 2-8° C. in a light-tight box. Cells were washed three times before fluorescently conjugated secondary antibodies. Second antibodies were incubated with cells for 45 minutes at 2-8° C. in a light-tight box and followed by washing three times. After the last wash, cells were suspended in washing buffer and analyzed by flow cytometry (BD LSR or BD LSRII). Data analysis was performed using FlowJo. • ELISA: To detect NE release into medium during neuronal differentiation, supernatant was collected at indicated time points along differentiation. Enzyme-linked immunosorbent assay (ELISA) were performed using a Noradrenaline (Norepinephrine) ELISA Assay Kit (EAGLE, NOR31-K01) following the manufacturer's instructions. • Electrophysiology: Whole-cell patch-clamp recordings were made from human ESC-derived NE neurons at 4 weeks. Briefly, the NE neurons were held at −70 mV to record the Na+/K+ channel activities with voltage-clamp model. For recording action potentials, the cells were held at 0 pA with the current-clamp model, and with the steps of injected currents from −50 pA to +50 pA. The bath solution consisted of 135 mM NaCl, 3 mM KCl, 2 mM CaCl2), 1 mM MgCl2, 10 mM HEPES, 11 mM glucose, 10 mM sucrose, pH7.4. […]

[1] = test system: hindbrain R1 neuroepithelial cells; experiment: NE progenitor fate specification of hindbrain R1 neuroepithelial cells (qPCR of MASH1, PHOX2B, PHOX2A and regional markers); conditions: for effect on expression of MASH1, PHOX2B, and PHOX2A: day 6 to day 12
Text: as §1
Development of NE neurons in LC depends on expression of Mash1, Phox2b and Phox2a in a stage dependent manner. See Pattyn et al., 2000, Mol Cell Neurosci, 15:235-243; Morin et al., 1997, Neuron, 18:411-423; Hirsch et al., 1998, Development, 125:599-608. Mash1 is expressed in the proliferative progenitor cells, while Phox2b and Phox2a are expressed when cells became postmitotic precursors and neurons. Pattyn et al., 2000. […] Thus, the effects of FGF8 and BMPs were tested in the second week of differentiation (FIG. 2B).
In further experiments it was determined whether the unique role of Activin A on human NE neuron specification was regional identity dependent. Neuroepithelial cells ranging from anterior forebrain to posterior hindbrain were obtained using different doses of CHIR99021, and then these neuroepithelial cells were treated with 25 ng/ml Activin A for 6 days.
Specifically, gene expression of MASH1 and PHOX2A/2B at different times was observed when NE progenitors were cultured in the presence of a low dose of Activin A (25 ng/ml) or a high dose of Activin A (125 ng/ml).
To determine whether blockade of BMP pathway or SHH pathway could facilitate NE specification, which could narrow the domain along the dorsal to ventral axis, hindbrain R1 neuroepithelial cells were treated with Activin A with or without BMP and SHH antagonist (FIGS. 3D-3I).

[2] = test system: GRABNE1m sensor-expressing NE neurons; experiment: Fluorescence imaging of GRABNE1m sensor cells; conditions: 1 μM

## Cc1c[nH]c(-c2cnc(NCCNc3ccc(C#N)cn3)nc2-c2ccc(Cl)cc2Cl)n1 [CHIR99021]
hESCs (H9 line); 1 μM, day 6
  cells expressing EN1 by immunocytochemistry: majority of the cells
  cells positive for OTX2 and HOXA2 by immunocytochemistry: few or no cells
hESCs (H9 line); 6 days, mRNA level
  concentration above which EN1, EN2, PAX2 mRNA began to down-regulate and HOXA2, GBX2 increased: above 0.6 μM
hESCs (H9 line); dose increment, 6 days
  concentration at which PHOX2B and PHOX2A reached their highest level: around 1 μM
hESCs (H9 line); increasing concentrations over 6 days
  expression of midbrain transcription factor genes EN1, EN2, PAX2: upregulated
hESCs (H9 line); increasing concentrations over 6 days, RT-qPCR and flow cytometry
  expression of OTX2 at mRNA and protein levels: down-regulated

## CC(C)Oc1ccc(-c2cnc3c(-c4ccnc5ccccc45)cnn3c2)cc1 [DMH1, 4-[6-(4-Isopropoxyphenyl)pyrazolo[1,5-a]pyrimidin-3-yl]quinoline]
[1]; 2 μM, with Activin A
  increase of NE progenitor markers: 1.5 fold

## NC[C@H](O)c1ccc(O)c(O)c1 [Norepinephrine]
[2]
  intensity of GRABNE1m sensor fluorescence: increased

## CC1=C2C[C@H]3[C@@H](CC=C4C[C@@H](O)CC[C@@]43C)[C@@H]2CC[C@]12O[C@@H]1C[C@H](C)CN[C@H]1[C@H]2C [cyclopamine]
[1]; 2 μM, with Activin A
  effect on NE progenitor markers MASH1 and PHOX2A/2B: only minor effects
  expression of dorsal markers MATH1 and OLIG3: increased expression

## TGF-β1: transforming growth factor β1
[1]; 10 ng/ml
  effect on expression of MASH1, PHOX2B, and PHOX2A: not

B1: FGF8: growth factor tested for NE fate specification (protein, UniProt P55075 23-233, looked up)
Fibroblast growth factor 8: QEGPGRGPALGRELASLFRAGREPQGVSQQHVREQSLVTDQLSRRLIRTYQLYSRTSGKHVQVLANKRINAMAEDGDPFAKLIVETDTFGSRVRVRGAETGLYICMNKKGKLIAKSNGKGKDCVFTEIVLENNYTALQNAKYEGWYMAFTRKGRPRKGSKTRQHQREVHFMKRLPRGHHTTEQSLRFEFLNYPPFTRSLRGSQRTWAPEPR
[1]; 100 ng/ml
  effect on expression of MASH1, PHOX2B, and PHOX2A: no obvious effects

B2: BMP7: bone morphogenetic protein (protein, UniProt P18075 293-431, looked up)
Bone morphogenetic protein 7: STGSKQRSQNRSKTPKNQEALRMANVAENSSSDQRQACKKHELYVSFRDLGWQDWIIAPEGYAAYYCEGECAFPLNSYMNATNHAIVQTLVHFINPETVPKPCCAPTQLNAISVLYFDDSSNVILKKYRNMVVRACGCH
[1]; 10 ng/ml
  effect on expression of MASH1, PHOX2B, and PHOX2A: no obvious effects

B3: Activin A: ligand in TGF-β pathway directing NE cell fate specification (protein, UniProt P08476 311-426, looked up)
Inhibin beta A chain: GLECDGKVNICCKKQFFVSFKDIGWNDWIIAPSGYHANYCEGECPSHIAGTSGSSLSFHSTVINHYRMRGHSPFANLKSCCVPTKLRPMSMLYYDDGQNIIKKDIQNMIVEECGCS
[1]
  concentration at which MASH1 reached maximum expression level: 25 ng/mL
  concentration at which PHOX2B and PHOX2A reached maximum level: 250 ng/mL
[1]; 10 ng/ml
  effect on expression of MASH1, PHOX2B, and PHOX2A: positive effect
[1]; day 9
  PHOX2B expression, high dose (125 ng/ml) versus low dose (25 ng/ml): similar
[1]; day 9 to day 12
  MASH1 expression, high dose (125 ng/ml) versus low dose (25 ng/ml): no obvious difference
[1]; day 12
  PHOX2B expression, high dose (125 ng/ml) versus low dose (25 ng/ml): over 2 fold
[1]; series of Activin A concentrations
  increase of MASH1, PHOX2B, and PHOX2A expression with dose: dose-dependent manner

B4: BMP5: bone morphogenetic protein (protein, UniProt P22003 317-454, looked up)
Bone morphogenetic protein 5: AANKRKNQNRNKSSSHQDSSRMSSVGDYNTSEQKQACKKHELYVSFRDLGWQDWIIAPEGYAAFYCDGECSFPLNAHMNATNHAIVQTLVHLMFPDHVPKPCCAPTKLNAISVLYFDDSSNVILKKYRNMVVRSCGCH
[1]; 10 ng/ml
  effect on expression of MASH1, PHOX2B, and PHOX2A: no obvious effects

B5: BMP4: bone morphogenetic protein (protein, UniProt P12644 293-408, looked up)
Bone morphogenetic protein 4: SPKHHSQRARKKNKNCRRHSLYVDFSDVGWNDWIVAPPGYQAFYCHGDCPFPLADHLNSTNHAIVQTLVNSVNSSIPKACCVPTELSAISMLYLDEYDKVVLKNYQEMVVEGCGCR
[1]; 10 ng/ml
  effect on expression of MASH1, PHOX2B, and PHOX2A: no obvious effects
